Calls of active or inactive are those of the source. The calls are words filed in the database; no cut-off is given here.
Experiments:
Type in all cases: functional
[1] = Antifolate activity against Lactobacillus leichmannii at 20 ug/ml
[2] = Antifolate activity against Lactobacillus leichmannii at 7 ug/ml
[3] = Antifolate activity against Lactobacillus leichmannii at 20 to 60 ug/ml in presence of 0.02 ug/ml of folinic acid
[4] = Antifolate activity against Lactobacillus leichmannii at 150 ug/ml in presence of 0.02 ug/ml of folinic acid and 250 ug/ml riboflavin
[5] = system: Lactobacillus leichmannii; experiment: Inhibition index, ratio of antifolate activity against Lactobacillus leichmannii in presence of 0.02 ug/ml of folinic acid to antifolate activity against Lactobacillus leichmannii absence of folinic acid
[6] = system: Lactobacillus leichmannii; experiment: Inhibition index, ratio of antifolate activity against Lactobacillus leichmannii in presence of 250 ug/ml of riboflavin to antifolate activity against Lactobacillus leichmannii absence of riboflavin

## Cc1cc2nc3c(N)nc(=N)nc-3n(C[C@H](O)[C@H](O)[C@H](O)CO)c2cc1C
[1]
  growth inhibition (GI): Active
[2]
  growth inhibition (GI): Active
[3]
  growth inhibition (GI): inactive
[4]
  growth inhibition (GI): inactive
[5]
  Ratio: 6000
[6]
  Ratio: 1.5
